Data published in patent US11166924B2, “N-methyl-d-aspartate receptor allosteric modulators and methods for their use” (Qingdao Primedicine Pharmaceutical Company, Ltd., priority 2016, dated 2021).
Read-outs that look alike come from different tables or passages of the source. Each block holds one molecule with its values, some of them ahead of it.

Experiments:
Format in all cases: cell-based
GluN1/GluN2B NMDARs = target: T1, GluN1/GluN2B NMDARs (Rattus norvegicus, UniProt P35439+Q00960); assay: Whole-cell patch clamp recordings in HEK293 cells transfected with GluN1/GluN2B
T1 construct: expressed in transfected cells; host or cells: HEK293

[1] = target: NMDARs in cultured hippocampal neurons (Rattus norvegicus, UniProt P35439+Q00959); assay: Whole-cell voltage clamp recordings of NMDAR currents in cultured hippocampal/cortical neurons
GluN1/GluN2A^Q111A = target: T2, GluN1/GluN2A^Q111A (Rattus norvegicus, UniProt P35439+Q00959, Q111A); assay: Patch clamp in HEK293 cells expressing mutant GluN1/GluN2A Q111A
T2 construct: expressed in transfected cells; host or cells: HEK293
Procedure: (§1) Whole cell patch-clamp recordings were performed under voltage-clamp mode using an Axopatch 200B or 1D patch-clamp amplifier (Molecular Devices). Whole-cell currents were recorded at a holding potential of −60 mV unless indicated elsewhere, and signals were filtered at 2 kHz, digitized at 10 kHz (Digidata 1322A). Recording pipettes (3-5 MΩ) were filled with intracellular solution containing (mM): CsCl 140, HEPES 10, Mg-ATP 4, QX-314 5, pH 7.20; osmolarity, 290-295 mOsm. BAPTA (10 mM) was added in the intracellular solution (unless otherwise specified). The coverslips were continuously superfused with extracellular solution containing (mM): NaCl 140, KCl 5.4, HEPES 10, CaCl2 1.3, glucose 20, pH 7.4; osmolarity, 305-315 mOsm. NMDA-induced currents were applied by NMDA through perfusion fast-step (Warner Instruments). With perfusion fast-step system, NMDA application was achieved by using a two-square barrel glass tubing and depending on the age of the cultured neurons, CNQX (10 μM), TTX (0.5 μM) or BIC (10 μM) were added in the extracellular solution to minimize the activation of ionotropic glutamate receptors and voltage-gated sodium channels, respectively. All experiments were performed at room temperature. Recordings from at least six HEK293 cells/neurons were performed for all active compounds. Data were pooled among HEK293 cells or primary neurons and composite dose-response data were fitted by the equation Percentage Response=100×Relative Efficacy/[1+(EC50/Concentration)nH], where EC50 is the concentration of agonist that produces a half-maximal response, relative efficacy is the response at maximally effective concentration relative to the maximal response of glutamate, and nH is the Hill slope.
(§2) The site-directed mutagenesis of GluN1 or GluN2A subunits were performed by using the QuikChange method (Stratagene). All mutant clones were confirmed by DNA sequencing. Wild-type or mutant subunits were transfected in HEK293 cells and subjected to electrophysiology examinations. […]

GluN1/GluN2A^F177S = target: T3, GluN1/GluN2A^F177S (Rattus norvegicus, UniProt P35439+Q00959, F177S); assay: Patch clamp in HEK293 cells expressing mutant GluN1/GluN2A F177S
T3 construct: expressed in transfected cells; host or cells: HEK293
Procedure: as §1, §2

GluN1/GluN2A^F115S = target: T4, GluN1/GluN2A^F115S (Rattus norvegicus, UniProt P35439+Q00959, F115S); assay: Patch clamp in HEK293 cells expressing mutant GluN1/GluN2A F115S
T4 construct: expressed in transfected cells; host or cells: HEK293
Procedure: as §1, with “Data were pooled among HEK293 cells or primary neurons and composite dose-response data were fitted by the equation Percentage Response=100×Relative Efficacy/[1+(EC50/Concentration)nH], where EC50 is the concentration of agonist that produces a half-maximal response, relative efficacy is the response at maximally effective concentration relative to the maximal response of glutamate, and nH is the Hill slope.” left out

GluN1/GluN2A NMDARs = target: T5, GluN1/GluN2A NMDARs (Rattus norvegicus, UniProt P35439+Q00959); assay: Whole-cell patch clamp recordings in HEK293 cells transfected with GluN1/GluN2A; details: for Enhancement of NMDA-mediated currents: compared to glutamate alone; for Selectivity for GluN1/GluN2A versus GluN1/GluN2B NMDARs: FIG. 2, HEK293 cells expressing GluN1/GluN2A and GluN1/GluN2B; for Normalized Potentiation: positive modulation of GluN1/GluN2A NMDARs, concentration not given
T5 construct: expressed in transfected cells; host or cells: HEK293
Procedure, shortened: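 Rat GluN1/GluN2A (1:1) transiently expressed in HEK293, recorded 48 h post-transfection by whole-cell voltage clamp at −60 mV, room temperature. CsCl/BAPTA pipette solution, pH 7.4 bath, glutamate/NMDA-evoked currents by fast perfusion. ≥6 cells per compound; EC50, relative efficacy versus maximal glutamate response and Hill slope from pooled dose-response fits.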

T1 sequence (Q00960 27-1482, other chains not shown): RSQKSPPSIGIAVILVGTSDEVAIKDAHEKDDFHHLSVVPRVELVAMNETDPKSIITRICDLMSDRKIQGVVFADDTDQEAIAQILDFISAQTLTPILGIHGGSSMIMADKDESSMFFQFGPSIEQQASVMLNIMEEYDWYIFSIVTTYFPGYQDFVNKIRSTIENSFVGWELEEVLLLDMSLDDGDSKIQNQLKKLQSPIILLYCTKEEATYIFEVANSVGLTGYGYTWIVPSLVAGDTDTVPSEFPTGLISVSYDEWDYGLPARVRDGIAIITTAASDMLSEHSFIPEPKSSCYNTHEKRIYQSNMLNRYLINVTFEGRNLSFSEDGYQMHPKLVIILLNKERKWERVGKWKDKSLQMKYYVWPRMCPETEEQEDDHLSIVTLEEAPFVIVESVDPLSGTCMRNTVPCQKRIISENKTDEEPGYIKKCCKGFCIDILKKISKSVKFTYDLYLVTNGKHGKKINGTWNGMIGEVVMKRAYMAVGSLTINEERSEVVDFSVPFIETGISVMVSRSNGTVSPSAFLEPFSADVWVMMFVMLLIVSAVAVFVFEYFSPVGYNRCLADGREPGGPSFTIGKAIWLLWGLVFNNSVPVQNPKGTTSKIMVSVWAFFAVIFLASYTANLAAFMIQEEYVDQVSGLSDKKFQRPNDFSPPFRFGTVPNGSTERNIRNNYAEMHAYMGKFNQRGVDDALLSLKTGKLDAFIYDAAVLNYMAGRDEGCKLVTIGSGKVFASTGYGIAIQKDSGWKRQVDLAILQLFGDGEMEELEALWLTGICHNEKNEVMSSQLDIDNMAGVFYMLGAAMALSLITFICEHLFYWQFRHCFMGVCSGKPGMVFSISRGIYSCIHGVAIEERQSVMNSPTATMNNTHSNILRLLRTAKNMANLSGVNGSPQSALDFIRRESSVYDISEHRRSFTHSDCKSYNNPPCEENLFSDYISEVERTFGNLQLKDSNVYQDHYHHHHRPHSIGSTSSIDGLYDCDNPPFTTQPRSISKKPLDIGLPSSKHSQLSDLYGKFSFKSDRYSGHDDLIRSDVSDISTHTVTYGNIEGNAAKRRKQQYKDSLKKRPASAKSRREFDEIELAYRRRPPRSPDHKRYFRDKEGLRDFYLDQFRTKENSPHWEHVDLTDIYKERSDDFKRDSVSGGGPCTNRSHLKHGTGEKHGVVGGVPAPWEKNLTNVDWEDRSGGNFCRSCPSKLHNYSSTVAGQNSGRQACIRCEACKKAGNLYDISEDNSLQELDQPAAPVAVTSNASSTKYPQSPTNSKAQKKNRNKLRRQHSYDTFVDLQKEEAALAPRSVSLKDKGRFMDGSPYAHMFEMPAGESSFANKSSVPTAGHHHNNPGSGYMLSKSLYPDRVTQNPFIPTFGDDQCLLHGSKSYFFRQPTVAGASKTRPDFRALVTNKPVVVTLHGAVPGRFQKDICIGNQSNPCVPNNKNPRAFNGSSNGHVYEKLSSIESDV
Sequence of NMDARs in cultured hippocampal neurons (Q00959 23-1464, other chains not shown): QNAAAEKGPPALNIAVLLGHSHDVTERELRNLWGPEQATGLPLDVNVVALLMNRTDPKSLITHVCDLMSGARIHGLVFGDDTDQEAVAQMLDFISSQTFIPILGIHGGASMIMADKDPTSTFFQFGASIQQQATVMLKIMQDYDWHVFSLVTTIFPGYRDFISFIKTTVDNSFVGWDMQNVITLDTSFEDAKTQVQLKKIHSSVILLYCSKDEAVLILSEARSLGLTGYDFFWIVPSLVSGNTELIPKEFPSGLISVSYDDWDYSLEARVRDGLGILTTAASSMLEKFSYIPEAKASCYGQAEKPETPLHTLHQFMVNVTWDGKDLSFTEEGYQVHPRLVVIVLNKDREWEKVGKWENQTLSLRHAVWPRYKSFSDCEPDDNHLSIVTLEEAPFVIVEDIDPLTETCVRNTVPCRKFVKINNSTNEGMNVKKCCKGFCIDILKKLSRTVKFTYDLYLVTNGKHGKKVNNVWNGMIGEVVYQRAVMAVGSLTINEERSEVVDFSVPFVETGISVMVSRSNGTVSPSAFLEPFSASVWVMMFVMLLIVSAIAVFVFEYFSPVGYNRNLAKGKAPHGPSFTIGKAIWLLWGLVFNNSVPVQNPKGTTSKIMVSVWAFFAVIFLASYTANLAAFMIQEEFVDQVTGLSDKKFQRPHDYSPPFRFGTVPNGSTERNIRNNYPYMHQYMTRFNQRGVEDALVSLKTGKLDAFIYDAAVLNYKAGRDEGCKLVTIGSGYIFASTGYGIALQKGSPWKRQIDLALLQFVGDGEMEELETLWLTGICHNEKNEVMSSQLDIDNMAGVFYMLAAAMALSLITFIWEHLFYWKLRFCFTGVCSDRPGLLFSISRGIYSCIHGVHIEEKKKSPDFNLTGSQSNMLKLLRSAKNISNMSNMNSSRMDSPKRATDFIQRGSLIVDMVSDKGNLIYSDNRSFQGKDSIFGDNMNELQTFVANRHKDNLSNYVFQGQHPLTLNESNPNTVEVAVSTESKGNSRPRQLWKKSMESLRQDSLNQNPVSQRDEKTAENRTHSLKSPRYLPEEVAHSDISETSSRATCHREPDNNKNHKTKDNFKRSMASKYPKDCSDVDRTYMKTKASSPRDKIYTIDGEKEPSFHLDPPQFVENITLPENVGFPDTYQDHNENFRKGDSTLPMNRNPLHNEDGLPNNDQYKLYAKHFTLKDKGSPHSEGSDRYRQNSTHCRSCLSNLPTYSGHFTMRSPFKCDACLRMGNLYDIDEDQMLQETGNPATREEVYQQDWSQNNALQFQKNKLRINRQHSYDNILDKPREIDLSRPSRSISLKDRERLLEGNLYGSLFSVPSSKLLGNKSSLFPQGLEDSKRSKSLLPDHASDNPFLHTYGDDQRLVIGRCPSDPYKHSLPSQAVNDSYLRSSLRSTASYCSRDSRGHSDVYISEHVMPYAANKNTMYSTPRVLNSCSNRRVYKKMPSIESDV
T5 sequence (Q00959 23-1464, other chains not shown): as above

Structure (SMILES): CCOc1cc(Cl)c(Cl)c(/C=N/NC(=O)c2ccccc2Br)c1O [Npam43, (E)-2-bromo-N′-(2,3-dichloro-5-ethoxy-6-hydroxybenzylidene)benzohydrazide]
Potentiation of NMDAR currents (GluN1/GluN2B NMDARs; 10 μM): did not exhibit potentiation
Dose-dependent enhancement of currents (GluN1/GluN2B NMDARs; GluN2B-containing NMDARs recordings): No dose-dependent enhancement of currents
activation at 10 µM ([1]; 10 μM, read-out: Potentiation at saturation point, above control level baseline): 322 ± 27%
Selective potentiation of GluN1/GluN2A NMDARs in hippocampal neurons ([1]; FIG. 12, with ifenprodril, NVP-AAM077, AP5 controls): selectively potentiates GluN1/GluN2A NMDARs
Shift of NMDA dose-response curve ([1]; Npam43 5 μM): shifted left
Net Difference potentiation (GluN1/GluN2A^Q111A; GluN2A Q111A, normalized to Npam43 response in wild-type GluN1/GluN2A): −38.4±0.78%
Relative potentiation (GluN1/GluN2A^Q111A; Table 3, GluN2A Q111A): 129 ± 6.7%
Net Difference potentiation (GluN1/GluN2A^F177S; GluN2A F177S, normalized to wild-type): −61.7 ± 0.03%
Relative potentiation (GluN1/GluN2A^F177S; Table 3, GluN2A F177S): 79.9 ± 2.6%
Relative potentiation (GluN1/GluN2A^F115S; Table 3): 68.1 ± 14.1%
Net Difference potentiation (GluN1/GluN2A^F115S; normalized to wild-type): −67.4±11.8%
Currents evoked by compound on its own (GluN1/GluN2A NMDARs): did not evoke currents on its own
Enhancement of NMDA-mediated currents (GluN1/GluN2A NMDARs; 10 μM co-applied with co-agonists): dramatically enhanced
Selectivity for GluN1/GluN2A versus GluN1/GluN2B NMDARs (GluN1/GluN2A NMDARs): selective for GluN1/GluN2A NMDARs
Normalized Potentiation (GluN1/GluN2A NMDARs; Table 1): 363.52 ± 27.3%
EC50 (GluN1/GluN2A NMDARs; Table 1, potentiation, read-out: EC50): 270 nM
Relative potentiation (GluN1/GluN2A NMDARs; Table 3, GluN1^WT/GluN2A^WT): 209 ± 6.7%
Saturation of enhancement relative to co-agonists alone baseline (GluN1/GluN2A NMDARs; dose-response, FIG. 9): ~350%
EC50 (GluN1/GluN2A NMDARs; dose-response, FIG. 9, read-out: EC50 of enhancement of GluN1/GluN2A currents): 240 ± 50 nM
EC50 (GluN1/GluN2A NMDARs; dose-response, FIG. 9, read-out: pEC50 of enhancement of GluN1/GluN2A currents (converted)): ~243 nM

Currents induced by compound on its own (GluN1/GluN2B NMDARs): did not induce currents on its own
activation at 100 µM (GluN1/GluN2B NMDARs; HEK293, Table 2, 100 μM, read-out: Normalized Potentiation GluN1/GluN2B): -4.82 ± 2.83%
activation at 100 µM ([1]; 100 μM bath, NMDA 5 uM, glycine 2 μM, compared to NMDA control, read-out: Modulation of NMDAR currents): 43 ± 6.55%
Modulation effect, GluN2A Gln111Ala (GluN1/GluN2A^Q111A; 100 μM, FIG. 8c): 30.69±1.60%
Modulation effect, GluN2A Phe177Ser (GluN1/GluN2A^F177S; 100 μM, FIG. 8c): 22.86±1.12%
Currents induced by compound applied alone (GluN1/GluN2A NMDARs; 100 μM alone): no changes of inward or outward currents
Enhancement of NMDA-mediated currents (GluN1/GluN2A NMDARs; 100 μM co-applied with co-agonists): 38.85±3.70%
Modulation effect, wild-type (GluN1/GluN2A NMDARs; 100 μM, wild-type GluN1/GluN2A, FIG. 8c): 41.75±2.62%
Enhancement of NMDA-mediated currents (GluN1/GluN2A NMDARs; 200 μM co-applied with co-agonists): 71.69±5.03%
Selectivity for GluN1/GluN2A versus GluN1/GluN2B NMDARs (GluN1/GluN2A NMDARs): selective for GluN1/GluN2A NMDARs
Normalized Potentiation (GluN1/GluN2A NMDARs; Table 1): 243.57 ± 24.81%
Structure (SMILES): COc1cccc(/C=N/NC(=O)c2ccccc2C)c1O [Npam02, (E)-N′-(2-hydroxy-3-methoxybenzylidene)-2-methylbenzohydrazide]
Potentiation of NMDAR currents (GluN1/GluN2B NMDARs; 100 μM): did not exhibit potentiation of NMDAR currents
Currents induced by compound on its own [1]: not able to induce inward or outward currents on its own
